Data published in paper PMC4321816 (Chemistry & biology, 2011).
Positions count from the first letter of the chain named.

Columns and labels:
[1] = target: T1, PhnA (phosphonoacetate hydrolase; PhnA-N-His) (Sinorhizobium meliloti, UniProt Q92UV8); details: formed by turnover of phosphonoacetate; bidentate to metal M1
T1 sequence (Q92UV8 1-424): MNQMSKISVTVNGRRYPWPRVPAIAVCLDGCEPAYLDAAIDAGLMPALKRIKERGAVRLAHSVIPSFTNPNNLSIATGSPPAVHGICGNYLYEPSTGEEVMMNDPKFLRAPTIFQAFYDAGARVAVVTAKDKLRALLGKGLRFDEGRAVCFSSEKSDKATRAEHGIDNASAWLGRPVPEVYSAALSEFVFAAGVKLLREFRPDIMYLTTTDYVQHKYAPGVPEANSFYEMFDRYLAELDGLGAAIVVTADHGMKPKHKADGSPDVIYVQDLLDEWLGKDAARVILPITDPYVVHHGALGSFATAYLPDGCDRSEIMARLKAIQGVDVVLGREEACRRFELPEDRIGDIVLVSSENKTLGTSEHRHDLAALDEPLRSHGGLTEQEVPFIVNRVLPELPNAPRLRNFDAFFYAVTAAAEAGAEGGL

[2] = target: T2, PhnA (phosphonoacetate hydrolase; PhnA-N-His) (Sinorhizobium meliloti, UniProt Q92UV8, T68A); assay: co-crystal structure, […] Å; assay type: binding; details: with 2 mM ZnCl2; active site, phosphonate at M2, carboxylate at M1
T2 sequence (Q92UV8 1-424 T68A): T1 sequence (Q92UV8 1-424) with T68A

[3] = target: T1, PhnA (phosphonoacetate hydrolase; PhnA-N-His); assay: co-crystal structure, […] Å; assay type: binding; details: covalent; transition state mimic on Thr68, di-zinc active site

## CC(=O)O [acetate]
[1]
  crystal structure, 2.0 Å, crystals soaked with phosphonoacetate: electron density consistent with an acetate ion bound to the M1 metal ion

## O=C(O)CP(=O)(O)O [phosphonoacetate]
[2]
  co-crystal structure, 2.0 Å: Crystals for the T68A mutant showed robust density for PnA in the active site

## [O]=[V]([OH])([OH])[OH] [vanadate]
[3]
  co-crystal structure, 1.8 Å (Table 1): we have determined the co-crystal structure of a covalent complex with orthovanadate
